Laboratory results as given in patent publication US20260166039A1 (SCHRÖDINGER, INC., priority 2022, published 2026).

Target: T1, Wee1 kinase domain (Homo sapiens, UniProt P30291)
T1 construct: Wee1 kinase domain was purchased from Carna (catalog #05-177); purchased Carna 05-177
Test: Wee1 Kinase Biochemical Assay (ADP-Glo)
Settings: Wee1 kinase domain, 15 uM ATP, ADP-Glo
Experimental: Wee1 Kinase Biochemical Assay Protocol
Wee1 kinase domain was purchased from Carna (catalog #05-177). Wee1 kinase activity was determined with Poly(Lys,Tyr 4:1) hydrobromide as a substrate (Sigma-Aldrich) and by measuring ADP production using the ADP-Glo Kinase Assay kit (Promega) following the manufacturer's instructions. The kinase reaction was performed using the following conditions:
Buffer: 40 mM Tris-HCl, 20 mM magnesium chloride, supplemented with 0.1 mg/mL bovine serum albumin and 2 mM DTT. The final reaction mix contained 1 nM Wee1 enzyme, 15 uM ATP, and 2 ng/mL Poly(Lys,Tyr 4:1) hydrobromide substrate. The reaction time was 4 hours at 25° C.
The ADP-Glo signal was measured using the Envision plate reader and the percentage inhibition of kinase activity calculated for each inhibitor tested. Percent inhibition of Wee1 kinase activity was calculated based on the following formula.
[formula] • SSample: the signal of compounds • SHigh Ctrl: the signal of high control (DMSO) • SLow Ctrl: the signal of low control (positive control Wee1 inhibitor at saturating concentration)

T1 sequence (P30291 299-569 limits assumed): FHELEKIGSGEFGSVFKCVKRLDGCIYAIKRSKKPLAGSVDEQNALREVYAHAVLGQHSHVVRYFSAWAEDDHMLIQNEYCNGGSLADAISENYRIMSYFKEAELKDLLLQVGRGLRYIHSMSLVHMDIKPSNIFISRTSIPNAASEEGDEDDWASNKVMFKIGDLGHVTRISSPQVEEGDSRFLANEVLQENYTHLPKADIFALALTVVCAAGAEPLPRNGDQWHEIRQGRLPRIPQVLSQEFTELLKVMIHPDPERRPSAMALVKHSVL

Structure (SMILES) | IC50
CNCc1cccc(N2c3nc(Nc4ccc([C@H]5CCC(=O)N5C)nc4)ncc3[C@@]3(C)COC(C)(C)C[C@@H]23)n1 (single isomer, unassigned) [Example 98] | < 0.01 µM
Cc1cc(Nc2ncc3c(n2)N(c2cccc(N=S(C)(C)=O)n2)[C@H]2CC(C)(C)OC[C@@]32C)ccc1C1CCN(C)CC1 (single isomer, unassigned) [Example 103] | 0.01 to 0.1 µM
Cc1cc(Nc2ncc3c(n2)N(c2cccc(N=S(C)(C)=O)n2)[C@H]2CC(C)(C)OC[C@@]32C)ccc1N1CCN(C)CC1 (single isomer, unassigned) [Example 105] | 0.01 to 0.1 µM
CN1Cc2cc(Nc3ncc4c(n3)N(c3cccc(N=S(C)(C)=O)n3)[C@H]3CC(C)(C)OC[C@@]43C)ccc2C2(CC2)C1 (single isomer, unassigned) [Example 108] | 0.01 to 0.1 µM
CN1CCc2ccc(Nc3ncc4c(n3)N(c3cccc(N=S(C)(C)=O)n3)[C@H]3CC(C)(C)OC[C@@]43C)cc2C1 (single isomer, unassigned) [Example 110] | 0.01 to 0.1 µM
CN1CCC(c2ccc(Nc3ncc4c(n3)N(c3cccc(N=S(C)(C)=O)n3)[C@@H]3CC(C)(C)OC[C@]43C)cc2)CC1 (single isomer, unassigned) [Example 111] | 0.01 to 0.1 µM
Cc1cc(Nc2ncc3c(n2)N(c2cccc(N=S(C)(C)=O)n2)[C@H]2CC(C)(C)OC[C@@]32C)ccc1[C@@H]1COCCN1 (single isomer, unassigned) [Example 113] | 0.01 to 0.1 µM
Cc1cc(Nc2ncc3c(n2)N(c2cccc(N=S(C)(C)=O)n2)[C@H]2CC(C)(C)OC[C@@]32C)ccc1[C@H]1COCCN1 (single isomer, unassigned) [Example 115] | 0.01 to 0.1 µM
CNC(=O)c1ccc(Nc2ncc3c(n2)N(c2cccc(N=S(C)(C)=O)n2)[C@H]2CC(C)(C)OC[C@@]32C)cc1 (single isomer, unassigned) [Example 116] | 0.1 to 1 µM
CNC(=O)c1ccc(Nc2ncc3c(n2)N(c2cccc(N=S(C)(C)=O)n2)C2CC(C)(C)OCC32C)cc1F (single isomer, unassigned) [Example 118] | ≥ 1 µM
CN1C[C@H]2C[C@@H]1CN2c1ccc(Nc2ncc3c(n2)N(c2cccc(N=S(C)(C)=O)n2)[C@H]2CC(C)(C)OC[C@@]32C)cc1 (single isomer, unassigned) [Example 121] | 0.1 to 1 µM
CN1C[C@@H]2C[C@H]1CN2c1ccc(Nc2ncc3c(n2)N(c2cccc(N=S(C)(C)=O)n2)[C@H]2CC(C)(C)OC[C@@]32C)cc1 (single isomer, unassigned) [Example 123] | 0.1 to 1 µM
CN1CCC[C@H]1c1ccc(Nc2ncc3c(n2)N(c2cccc(N=S(C)(C)=O)n2)[C@H]2CC(C)(C)OC[C@@]32C)cc1 (single isomer, unassigned) [Example 125] | 0.01 to 0.1 µM
CN1CCC[C@@H]1c1ccc(Nc2ncc3c(n2)N(c2cccc(N=S(C)(C)=O)n2)[C@H]2CC(C)(C)OC[C@@]32C)cc1 (single isomer, unassigned) [Example 128] | 0.1 to 1 µM
CN1CC[C@@H](c2ccc(Nc3ncc4c(n3)N(c3cccc(N=S(C)(C)=O)n3)[C@H]3CC(C)(C)OC[C@@]43C)cc2)C1 (single isomer, unassigned) [Example 130] | 0.1 to 1 µM
CN1CC[C@H](c2ccc(Nc3ncc4c(n3)N(c3cccc(N=S(C)(C)=O)n3)[C@H]3CC(C)(C)OC[C@@]43C)cc2)C1 (single isomer, unassigned) [Example 134] | 0.1 to 1 µM
CN1Cc2cc(Nc3ncc4c(n3)N(c3cccc(N=S(C)(C)=O)n3)[C@H]3CC(C)(C)OC[C@@]43C)ccc2C(C)(C)C1 (single isomer, unassigned) [Example 136] | 0.01 to 0.1 µM
CC1(C)C[C@@H]2N(c3cccc(N=S(C)(C)=O)n3)c3nc(Nc4ccc([C@H]5CCNC5)cc4)ncc3[C@]2(C)CO1 (single isomer, unassigned) [Example 138] | 0.01 to 0.1 µM
CN1CCC(c2ccc(Nc3ncc4c(n3)N(c3cccc(N=S(C)(C)=O)n3)[C@H]3CC(C)(C)OC[C@@]43C)cn2)CC1 (single isomer, unassigned) [Example 139] | 0.1 to 1 µM
CN(C)C(=O)c1ccc(Nc2ncc3c(n2)N(c2cccc(N=S(C)(C)=O)n2)[C@H]2CC(C)(C)OC[C@@]32C)cc1 (single isomer, unassigned) [Example 142] | 0.01 to 0.1 µM
Cc1cc(Nc2ncc3c(n2)N(c2cccc(N=S(C)(C)=O)n2)[C@H]2CC(C)(C)OC[C@@]32C)ccc1[C@@H]1CCNC1 (single isomer, unassigned) [Example 144] | 0.1 to 1 µM
Cc1cc(Nc2ncc3c(n2)N(c2cccc(N=S(C)(C)=O)n2)[C@H]2CC(C)(C)OC[C@@]32C)ccc1[C@@H]1CCN(C)C1 (single isomer, unassigned) [Example 146] | 0.01 to 0.1 µM

Structure (SMILES) | IC50
Cc1cc(Nc2ncc3c(n2)N(c2cccc(N=S(C)(C)=O)n2)[C@H]2CC(C)(C)OC[C@@]32C)ccc1[C@H]1CCN(C)C1 (single isomer, unassigned) [Example 148] | 0.01 to 0.1 µM
Cc1cc(Nc2ncc3c(n2)N(c2cccc(N=S(C)(C)=O)n2)[C@H]2CC(C)(C)OC[C@@]32C)ccc1[C@H]1CCNC1 (single isomer, unassigned) [Example 150] | 0.01 to 0.1 µM
CN1CCC(n2ccc(Nc3ncc4c(n3)N(c3cccc(N=S(C)(C)=O)n3)C3CC(C)(C)OCC43C)cc2=O)CC1 (single isomer, unassigned) [Example 151] | 0.1 to 1 µM
CC1(C)C[C@@H]2N(c3cccc(N=S(C)(C)=O)n3)c3nc(Nc4ccc(O[C@H]5CCNC5)cc4)ncc3[C@]2(C)CO1 (single isomer, unassigned) [Example 154] | 0.1 to 1 µM
CC1(C)C[C@@H]2N(c3cccc(N=S(C)(C)=O)n3)c3nc(Nc4ccc(O[C@@H]5CCNC5)cc4)ncc3[C@]2(C)CO1 (single isomer, unassigned) [Example 156] | 0.01 to 0.1 µM
CN1CC[C@H](Oc2ccc(Nc3ncc4c(n3)N(c3cccc(N=S(C)(C)=O)n3)[C@H]3CC(C)(C)OC[C@@]43C)cc2)C1 (single isomer, unassigned) [Example 158] | 0.1 to 1 µM
CN1CC[C@@H](Oc2ccc(Nc3ncc4c(n3)N(c3cccc(N=S(C)(C)=O)n3)[C@H]3CC(C)(C)OC[C@@]43C)cc2)C1 (single isomer, unassigned) [Example 160] | 0.1 to 1 µM
[2H]C([2H])([2H])N1CCC(c2ccc(Nc3ncc4c(n3)N(c3cccc(N=S(C)(C)=O)n3)[C@H]3CC(C)(C)OC[C@@]43C)cc2)CC1 (single isomer, unassigned) [Example 161] | 0.1 to 1 µM
CC1(C)C[C@@H]2N(c3cccc(N=S(C)(C)=O)n3)c3nc(Nc4ccc(C5CNC5)cc4)ncc3[C@]2(C)CO1 (single isomer, unassigned) [Example 164] | 0.01 to 0.1 µM
CN1CC(c2ccc(Nc3ncc4c(n3)N(c3cccc(N=S(C)(C)=O)n3)[C@H]3CC(C)(C)OC[C@@]43C)cc2)C1 (single isomer, unassigned) [Example 166] | 0.01 to 0.1 µM
CN1CC[C@](C)(c2ccc(Nc3ncc4c(n3)N(c3cccc(N=S(C)(C)=O)n3)[C@H]3CC(C)(C)OC[C@@]43C)cc2)C1 (single isomer, unassigned) [Example 167] | 0.01 to 0.1 µM
CN1CC[C@@](C)(c2ccc(Nc3ncc4c(n3)N(c3cccc(N=S(C)(C)=O)n3)[C@H]3CC(C)(C)OC[C@@]43C)cc2)C1 (single isomer, unassigned) [Example 170] | 0.01 to 0.1 µM
CC1(C)C[C@@H]2N(c3cccc(N=S(C)(C)=O)n3)c3nc(Nc4ccc([C@]5(C)CCNC5)cc4)ncc3[C@]2(C)CO1 (single isomer, unassigned) [Example 172] | 0.01 to 0.1 µM
CC1(C)C[C@H]2N(c3cccc(N=S(C)(C)=O)n3)c3nc(Nc4ccc([C@@]5(C)CCNC5)cc4)ncc3[C@@]2(C)CO1 (single isomer, unassigned) [Example 174] | 0.01 to 0.1 µM
CN1C[C@H]2C[C@@H]1CN2c1ccc(Nc2ncc3c(n2)N(c2cccc(N=S(C)(C)=O)n2)[C@H]2CC(C)(C)OC[C@@]32C)cc1F (single isomer, unassigned) [Example 175] | 0.1 to 1 µM
CN1CCC(c2ccc(Nc3ncc4c(n3)N(c3cccc(N=S(C)(C)=O)n3)[C@H]3CC(C)(C)OC[C@@]43C)cc2F)CC1 (single isomer, unassigned) [Example 178] | 0.1 to 1 µM
CN1C[C@@H]2C[C@H]1CN2c1ccc(Nc2ncc3c(n2)N(c2cccc(N=S(C)(C)=O)n2)[C@H]2CC(C)(C)OC[C@@]32C)cc1F (single isomer, unassigned) [Example 179] | 0.1 to 1 µM
CN1CC(c2ccc(Nc3ncc4c(n3)N(c3cccc(N=S(C)(C)=O)n3)[C@H]3CC(C)(C)OC[C@@]43C)cc2Cl)C1 (single isomer, unassigned) [Example 182] | 0.1 to 1 µM
CN1CC(c2ccc(Nc3ncc4c(n3)N(c3cccc(N=S(C)(C)=O)n3)[C@H]3CC(C)(C)OC[C@@]43C)cc2F)C1 (single isomer, unassigned) [Example 185] | 0.1 to 1 µM
CC1(C)C[C@@H]2N(c3cccc(N=S(C)(C)=O)n3)c3nc(Nc4cnn(C5CCOCC5)c4)ncc3[C@]2(C)CO1 (single isomer, unassigned) [Example 186] | 0.1 to 1 µM
CN1Cc2cc(Nc3ncc4c(n3)N(c3cccc(N=S(C)(C)=O)n3)[C@H]3CC(C)(C)OC[C@@]43C)cnc2C1 (single isomer, unassigned) [Example 187] | ≥ 1 µM
CC1(C)C[C@@H]2N(c3cccc(N=S(C)(C)=O)n3)c3nc(Nc4ccc(C5CNC5)c(F)c4)ncc3[C@]2(C)CO1 (single isomer, unassigned) [Example 189] | 0.1 to 1 µM
